Data published in patent US12329733B2, “Acetyl-leucine or a pharmaceutically acceptable salt thereof for improved mobility and cognitive function” (INTRABIO LTD., priority 2016, dated 2025).

Experiments:
[1] = system: patient with postural imbalance; experiment: Scale for the Assessment and Rating of Ataxia (SARA); assay type: in vivo, human; details: Example 6: 5 g/day for 1 month; baseline 6.5/40
From the text: The patient was examined clinically by means of the following clinical assessments: maximal distance to walk; timed Up and Go test; Scale for the Assessment and Rating of Ataxia (SARA).

[2] = system: patients with postural imbalance / gait disorder; subjects; experiment: clinical examination and patient/family reports of balance, gait, dizziness and falls; assay type: in vivo, human; details: for balance (subjective): 5 g/day
From the text: In addition to the mobility assessments disclosed above, mobility in a subject having a mobility disorder associated with ageing may be tested, for example, using assessments of balance and/or through monitoring the number of falls experienced by the subject.

[3] = system: cerebellar patients; details: cited from earlier work
[4] = system: subjects (cognitive function); experiment: subject and family reports of cognitive function and alertness; assay type: in vivo, human; details: for Details on Subjective Improvement / Subjective Improvement on treatment?: 5 g/day
From the text: “Cognitive function” can mean any mental process that involves a symbolic operation, for example, perception, memory, creation of imagery, awareness, reasoning, thinking and capacity for judgment. Measures of cognitive functioning include assessment tools designed to measure, for example: (a) general intelligence, (b) nonverbal intelligence, (c) achievement, (d) attention/executive functioning, (e) memory and learning, (f) visual-motor and motor functioning and (g) language. Such assessment tools are well-known in the art and include, for example, Wechsler Adult Intelligence Scale and Woodcock-Johnson III Tests of Cognitive Abilities (both for assessing general intelligence), Raven Progressive Matrices (for assessing nonverbal intelligence), Wide Range Achievement Test and Woodcock-Johnson III Tests of Achievement (for assessing academic achievement), Conners' Continuous Performance Test II (for assessing attention/executive functioning), Wide Range Assessment of Memory and Learning (for assessing memory and learning), Bender Visual-Motor Gestalt Test, Halstead-Reitan Grip Strength Test, Halstead-Reitan Finger Tapping Test and Lafayette Grooved Pegboard Task (all for assessing visual-motor and motor functioning) and Peabody Picture Vocabulary Test (for assessing language).

[5] = system: patient with postural imbalance; experiment: timed 8-meter-walking test; assay type: in vivo, human; details: Example 6: 5 g/day for 1 month; baseline 6.5 sec
From the text: Baseline (prior to commencement of treatment): Maximal distance to walk until the patient could not walk anymore because of fatigue was 1 km. The […] up-and-go test yielded 25.4 sec. SARA yielded 6.5/40. […] Tandem stance and gait was not possible to perform due to an increased fall risk. Mean timed 8-meter-walking test was 6.5 sec.

[6] = system: patients with gait disorder; experiment: quantitative gait analysis (“gait-rite”, video); assay type: in vivo, human
[7] = Example 1: after one-month course ceased
[8] = Example 1: remains on 4.5 g per day
[9] = Example 1: person, 4.5 g/day, after 2-3 weeks of treatment

SMILES: CC(=O)NC(CC(C)C)C(=O)O (racemic) [acetyl-DL-leucine]
- SARA [1]: 2 /40
- balance after ceasing treatment [2, 7]: remained good for two weeks then deteriorated
- walking confidence / balance ([2]; Example 1: person, 4.5 g/day, by 7-10 days of treatment): more confident walking due to improved balance
- improvements of first and second months, on further treatment [2, 8]: have continued
- improvements noticed in first month, on second treatment ([2]; Example 1: second one-month course, 4.5 g/day): rapidly returned
- dizziness symptoms ([2]; Example 2: person, balance disorder/senile gait disorder, 3 g/day first week then 5 g/day, Day 14): improvement of dizziness symptoms
- frequency of falls ([2]; Example 2: person, 3 g/day first week then 5 g/day, Day 14): significant reduction in the frequency of falls
- hypokinetic-rigid syndrome ([2]; Example 2: person, Day 14): No change
- dizziness symptoms after suspension of treatment ([2]; Example 2: treatment suspended Day 56, re-evaluated Day 62): increase of dizziness symptoms two days after suspension of treatment
- time when improvement began ([2]; Example 3: person): second week of treatment
- dizziness and imbalance (spouse feedback) ([2]; Example 3: person, 3 g/day one week then 5 g/day, 22 days after beginning treatment): significant reduction of dizziness and imbalance
- gait (spouse feedback) ([2]; Example 3: person, 22 days after beginning treatment): significant improvement of gait
- gait and imbalance (patient and child report) ([2]; Example 4: person, 3 g/day one week then 5 g/day, 3 weeks after beginning treatment): significantly improved
- clinical examination of gait and balance ([2]; Example 5: Day 42, 3 gram per day): significant improvement of gait and balance
- spouse report on re-evaluation ([2]; Example 5: Day 42, 3 gram per day restarted Day 28): dramatic improvement with impact on functioning and quality of living
- falls ([2]; Example 5: Day 42, four falls over three months before Day 0): No further falls were reported
- symptoms after medication was stopped ([2]; Example 5: medication stopped after two weeks): worsening of symptoms
- gait (patient and spouse report) ([2]; Example 5: patient, progressive gait disorder, 3 gram per day for two weeks): considerable improvement of gait
- improvements on lower dosage ([2]; Example 6: 1 g/1 g/1 g for over 4 months): remained unchanged
- sway ([2]; Example 6: 5 g/day for 1 month): became visibly calmer
- stance with feet together, tandem stance and gait ([2]; Example 6: 5 g/day for 1 month, tandem stance and gait not possible at baseline): possible with increased omnidirectional sway
- postural stability (subjective) ([2]; Example 6: 5 g/day for 1 month, walking and stairs): subjectively more postural stable
- frequency of falls ([2]; Example 6: current state on 1 g/1 g/1 g, 2-3 per month before treatment): 0-1 /month
- falls during therapy period ([2]; Example 6: therapy period of 1 month, 2-3 per month before): did not record any falls
- balance (subjective) ([2]; Example 7: 66 M): improvement in their balance
- balance (subjective) ([2]; Example 8: 29 M): no difference in balance
- cerebellar symptoms ([3]; case series, ref (5)): Improvement of cerebellar symptoms
- benefit in another case series ([3]; ref (6)): did not find benefit
- cognition after ceasing treatment [4, 7]: gradually declined to their pre-treatment status over one month
- alertness on waking (subject's description) [4, 9]: fully alert on waking
- cognitive function, spatial awareness and general demeanor (family) [4, 9]: significant improvement in their cognitive function, spatial awareness and general demeanor
- confusion evident prior to treatment [4, 8]: entirely absent
- communication and executive function (family) ([4]; Example 6: 5 g/day for 1 month): executive function improved
- energy, agility (subjective) ([4]; Example 6: 5 g/day for 1 month): more energy, was more agile and interactive
- Details on Subjective Improvement ([4]; Example 7: 66 M): improvement in general alertness and a shortening of the time required to go from ‘asleep’ to ‘fully awake’
- Subjective Improvement on treatment? ([4]; Example 7: 66 M): Yes
- Details on Subjective Improvement ([4]; Example 8: 29 M): improvement in general alertness. They also reported a decrease in anxiety
- Subjective Improvement on treatment? ([4]; Example 8: 29 M): Yes
- Details on Subjective Improvement ([4]; Example 9: 55 F): shortening of the time required to go from ‘asleep’ to ‘fully awake’
- Subjective Improvement on treatment? ([4]; Example 9: 55 F): Yes
- Subjective Improvement on treatment? ([4]; Example 10: […]): no difference between on and off medication
- Subjective Improvement on treatment? ([4]; Example 10: […], listed as acetyl-leucine): No
- Details on Subjective Improvement ([4]; Example 11: 53 M): improvement in general alertness and a shortening of the time required to go from ‘asleep’ to ‘fully awake’
- Subjective Improvement on treatment? ([4]; Example 11: 53 M): Yes
- Details on Subjective Improvement ([4]; Example 12: 48 F): feeling less tired than usual and taking less time than was usual to go from asleep to fully awake
- Subjective Improvement on treatment? ([4]; Example 12: 48 F): Yes
- Mean timed 8-meter-walking test [5]: 4.4 s
- video analysis of gait ([6]; Example 4: 3 weeks after beginning treatment): now even able to run
- Coefficient of variation (CV) of stride time: CV = (standard deviation/mean) × 100 ([6]; Example 4: after 3 weeks' treatment, before treatment 1.6): 1.8
- Spreading width (distance between the heel center of one footprint to the line of movement of the other foot) ([6]; Example 4: after 3 weeks' treatment, before treatment 9.3): 8.1 cm
- % of the time of two periods in the gait cycle in which both feet at the same time are in contact with the ground ([6]; Example 4: after 3 weeks' treatment, before treatment 27.2): 25.5%
- Cadence ([6]; Example 4: after 3 weeks' treatment, before treatment 92): 100 steps/minute
- Step cycle length (distance between two consecutive contacts of a foot on the ground) ([6]; Example 4: after 3 weeks' treatment, before treatment 116): 116 cm
- Maximum walking speed (maximal gait velocity) ([6]; Example 4: after 3 weeks' treatment, before treatment 141): 157 cm/s
- Natural walking speed (self-chosen gait velocity) ([6]; Example 4: person, after 3 weeks' treatment, before treatment 88): 96 cm/s
- self-chosen gait velocity ([6]; Example 5: Day 42, 3 gram per day, from 55 cm/sec at Day 0): 62 cm/s
- maximal gait velocity ([6]; Example 5: Day 42, 3 gram per day, from 84 cm/sec at Day 0): 130 cm/s
